Converted amounts (≈) assume the structure as drawn. Peptide text beside a SMILES is read from it.
Tests used:
[1] = system: Acinetobacter baumannii_isolate 23 (antibiotic-resistant); format: cell-based, Acinetobacter baumannii; settings: isolate 23 (antibiotic-resistant)
Summary of the method: (§1)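 Minimum inhibitory concentration determined against mid-log bacteria (2×10^4 cells/100 μL) after 18 h incubation at 37° C with twofold-diluted peptide, using OD600 to judge growth inhibition.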

[2] = system: Acinetobacter baumannii_isolate 26 (antibiotic-resistant); format: cell-based, Acinetobacter baumannii; settings: isolate 26 (antibiotic-resistant)
Summary of the method: as §1

[3] = system: Acinetobacter baumannii_isolate 22 (antibiotic-resistant); format: cell-based, Acinetobacter baumannii; settings: isolate 22 (antibiotic-resistant)
Summary of the method: as §1

[4] = system: Acinetobacter baumannii_isolate 18 (antibiotic-resistant); format: cell-based, Acinetobacter baumannii; settings: isolate 18 (antibiotic-resistant)
Summary of the method: as §1

[5] = system: Acinetobacter baumannii_isolate 4 (antibiotic-resistant); format: cell-based, Acinetobacter baumannii; settings: isolate 4 (antibiotic-resistant)
Summary of the method: as §1

[6] = system: Acinetobacter baumannii_isolate21 (antibiotic-resistant); format: cell-based, Acinetobacter baumannii; settings: isolate21 (antibiotic-resistant)
Summary of the method: as §1

[7] = system: Acinetobacter baumannii_isolate 12 (antibiotic-resistant); format: cell-based, Acinetobacter baumannii; settings: isolate 12 (antibiotic-resistant)
Summary of the method: as §1

[8] = system: Acinetobacter baumannii_isolate 13 (antibiotic-resistant); format: cell-based, Acinetobacter baumannii; settings: isolate 13 (antibiotic-resistant)
Summary of the method: as §1

[9] = system: Acinetobacter baumannii_isolate 6 (antibiotic-resistant); format: cell-based, Acinetobacter baumannii; settings: isolate 6 (antibiotic-resistant)
Summary of the method: as §1

[10] = system: Acinetobacter baumannii_isolate 24 (antibiotic-resistant); format: cell-based, Acinetobacter baumannii; settings: isolate 24 (antibiotic-resistant)
Summary of the method: as §1

[11] = system: Acinetobacter baumannii_isolate 14 (antibiotic-resistant); format: cell-based, Acinetobacter baumannii; settings: isolate 14 (antibiotic-resistant)
Summary of the method: as §1

[12] = system: Acinetobacter baumannii_isolate 17 (antibiotic-resistant); format: cell-based, Acinetobacter baumannii; settings: isolate 17 (antibiotic-resistant)
Summary of the method: as §1

[13] = system: Acinetobacter baumannii KCTC 2508; format: cell-based; settings: KCTC 2508, 24 h
Protocol: Specifically, among the bacterial strains listed in Table 2, those known to form biofilms well (Acinetobacter baumannii KCTC 2508, Acinetobacter baumannii isolate 10, and isolate 14) were cultured in the appropriate media to the mid-log phase and diluted to a cell concentration of 5×10^4 cells/100 µL, followed by inoculation into microplates (SPL). Subsequently, the peptides prepared in <Example 1> were serially 10-fold diluted with 10 mM sodium phosphate buffer (pH 7.2), and 10 μL of each dilution was added to each well. The plates were then incubated at 37° C. for 24 hours. After completely removing the supernatant, the plates were fixed with 100% methanol for 15 minutes, stained with crystal violet staining solution for 1 hour, washed three times, and then the stain was solubilized with 95% ethanol. Absorbance was measured at 595 nm using a microplate reader to determine the MBIC values for each bacterial strain.

[14] = system: plasmid DNA (pRSETB); test: Binding to bacterial DNA, agarose gel electrophoresis; settings: 260 ng plasmid DNA, DNA/peptide ratios 1:1 to 1:4, 37° C. 10 minutes
Protocol: Accordingly, to further elucidate the mechanism by which these novel peptides exert antimicrobial activity, it was examined whether the novel peptides dCATH-A6 and dCATH-A7 bind to intracellular bacterial DNA using electrophoresis.
Specifically, 260 ng of plasmid DNA (pRSETB) was reacted with each peptide at various ratios (lanes 1 through […] represent DNA only, 1:1, 1:2, 1:3, and 1:4 DNA/peptide ratios, respectively) at 37° C. for 10 minutes. The samples were then subjected to electrophoresis on a 1% agarose gel, stained with ethidium bromide (EtBr), and visualized under UV light.

[15] = system: Acinetobacter baumannii membrane; test: Flow cytometry, propidium iodide, action on bacterial membrane; format: cell-based; settings: peptide at twice the MIC, 37° C. 10 minutes
Protocol: To determine whether the peptides prepared in <Example 1> act on bacterial membranes, the parent peptide and the novel peptides dCATH-A1, dCATH-A2, dCATH-A3, dCATH-A4, dCATH-A5, dCATH-A6, and dCATH-A7 were analyzed using flow cytometry.
Specifically, Acinetobacter baumannii was treated with each peptide at twice the minimum inhibitory concentration (MIC), followed by incubation at 37° C. for 10 minutes. The supernatant was then removed by centrifugation at 10,000 rpm, and the bacterial cells were stained with propidium iodide (PI) at a concentration of 10 μg/mL at 4° C. for 30 minutes. Unbound PI was removed by centrifugation, and 1 mL of phosphate-buffered saline (PBS) was added to disperse any cell clumps. The effect of the peptides on the bacterial membrane was then assessed using a Beckman flow cytometer.

| MIC [1] | MIC [2] | MIC [3] | MIC [4] | MIC [5] | MIC [6] | MIC [7] | MIC [8] | MIC [9] | MIC [10] | MIC [11] | MIC [12] | binding to DNA (electrophoresis) [14] | SMILES | MBIC [13] | membrane damage in Acinetobacter baumannii (shift in PI fluorescence signal) [15] |
| --- | --- | --- | --- | --- | --- | --- | --- | --- | --- | --- | --- | --- | --- | --- | --- |
| 1 µM (≈ 2.5 µg/mL) | 2 µM (≈ 5 µg/mL) | 1 µM (≈ 2.5 µg/mL) | 1 µM (≈ 2.5 µg/mL) | 1 µM (≈ 2.5 µg/mL) | 1 µM (≈ 2.5 µg/mL) | 1 µM (≈ 2.5 µg/mL) | 1 µM (≈ 2.5 µg/mL) | 2 µM (≈ 5 µg/mL) | 1 µM (≈ 2.5 µg/mL) | 2 µM (≈ 5 µg/mL) | 1 µM (≈ 2.5 µg/mL) | did bind to DNA | CC[C@H](C)[C@H](NC(=O)[C@H](C)NC(=O)[C@H](CCCCN)NC(=O)[C@H](CCCCN)NC(=O)[C@@H](NC(=O)[C@H](CC(C)C)NC(=O)[C@H](CCC(N)=O)NC(=O)[C@H](C)NC(=O)[C@H](C)NC(=O)[C@H](CCCNC(=N)N)NC(=O)[C@@H](N)CCCCN)C(C)C)C(=O)N[C@@H](CCCCN)C(=O)N[C@@H](CCCCN)C(=O)N[C@@H](Cc1ccc(O)cc1)C(=O)N[C@@H](CCCNC(=N)N)C(=O)N[C@@H](C)C(=O)N[C@@H](Cc1c[nH]c2ccccc12)C(=O)N[C@@H](CCCCN)C(=O)N[C@@H](CCCNC(=N)N)C(=O)N[C@@H](CCCNC(=N)N)C(N)=O [dCATH-A6] (H-KRAAQLVKKAIKKYRAWKRR-NH2; N-terminus assumed) | 2 µM | no damage to the bacterial membrane |
| 2 µM (≈ 5.26 µg/mL) | 2 µM (≈ 5.26 µg/mL) | 2 µM (≈ 5.26 µg/mL) | 2 µM (≈ 5.26 µg/mL) | 2 µM (≈ 5.26 µg/mL) | 2 µM (≈ 5.26 µg/mL) | 2 µM (≈ 5.26 µg/mL) | 2 µM (≈ 5.26 µg/mL) | 4 µM (≈ 10.5 µg/mL) | 4 µM (≈ 10.5 µg/mL) | 2 µM (≈ 5.26 µg/mL) | 2 µM (≈ 5.26 µg/mL) | no detectable binding to DNA | CC[C@H](C)[C@H](NC(=O)[C@H](C)NC(=O)[C@H](CC(C)C)NC(=O)[C@@H]1CCCN1C(=O)[C@@H](NC(=O)[C@H](CC(C)C)NC(=O)[C@H](CCC(N)=O)NC(=O)[C@H](Cc1c[nH]c2ccccc12)NC(=O)[C@H](Cc1ccccc1)NC(=O)[C@H](CCCNC(=N)N)NC(=O)[C@@H](N)CCCCN)C(C)C)C(=O)N[C@@H](CCCCN)C(=O)N[C@H](C(=O)N[C@@H](Cc1ccc(O)cc1)C(=O)N[C@@H](CCCNC(=N)N)C(=O)N[C@@H](C)C(=O)N[C@@H](Cc1c[nH]c2ccccc12)C(=O)N[C@@H](CCCCN)C(=O)N[C@@H](CCCNC(=N)N)C(=O)N[C@@H](CCCNC(=N)N)C(N)=O)[C@@H](C)CC [dCATH, reference compound] (H-KRFWQLVPLAIKIYRAWKRR-NH2; N-terminus assumed) | 4 µM | induced membrane damage |

From patent US20260217765A1, “NOVEL ANTIMICROBIAL PEPTIDE DESIGNED FROM DUCK-DERIVED ANTIMICROBIAL PEPTIDE ANDUSE THEREOF” (INDUSTRY-ACADEMIC COOPERATION FOUNDATION, CHOSUN UNIVERSITY, priority 2023, published 2026)
